Source: patent US20240207302A1, “ANTIVIRAL COMPOUNDS, METHODS FOR THE MANUFACTURING OF COMPOUNDS, ANTIVIRAL PHARMACEUTICAL COMPOSITION, USE OF THE COMPOUNDS AND METHOD FOR THE ORAL TREATMENT OF CORONAVIRUS INFECTION AND RELATED DISEASES THEREOF” (priority 2021, published 2024)
Marks after values point to notes of the source that are not given here.

Key:
SARS-COV-2 = SARS-COV-2 viral RNA synthesis in Vero cells (real time RT-PCR); format: cell-based; settings: Severe acute respiratory syndrome coronavirus 2; Vero (MOI 0.01 24 h); read-out: EC50
[1] = Repeated dose 28-day oral toxicity study; format: in vivo, mice
Procedure: FIG. 10A and 10B. […] Body weight gain in weeks (A) in males and (B) in females by 4 weeks. […] Body weight was measured once a week.
These experiments were conducted in compliance with the GLP principles. Morbidity, mortality, body weight in male (FIG. 10A) and female (FIG. 10B), food consumption as well as general and detailed clinical signs were evaluated. In the last week, urine samples from all animals were collected for analysis. At necropsy, blood samples were collected for hematological, biochemical and coagulation analyses, followed by tissue and organ collection for macroscopic and histopathological analyses.

[2] = female mice, 10 mg/kg oral once daily for 28 days
[3] = female mice, 80 mg/kg oral once daily for 28 days
[4] = female mice, 250 mg/kg oral once daily for 28 days
[5] = female mice, 10 mg/kg daily, 28 days
[6] = female mice, 80 mg/kg daily, 28 days
[7] = female mice, 250 mg/kg daily, 28 days
[8] = male mice, 10 mg/kg daily, 28 days
[9] = male mice, 80 mg/kg daily, 28 days
[10] = male mice, 250 mg/kg daily, 28 days

c1coc(CNc2ncnc3[nH]cnc23)c1 [MB-905, kinetin]
EC50 (SARS-COV-2): 5 µM
NOAEL at 28 days ([1]; both sexes, CD1, mouse, in vivo, mice, oral, 28-day study): 80 mg/kg
ALB (Albumin), Mean [1, 2]: 2.67 g/dL
ALT (Alanine aminotransferase), Mean [1, 2]: 43.72 U/L
AST (Aspartate Aminotransferase), Mean [1, 2]: 91.88 U/L
BT (Total Bilirubin), Mean [1, 2]: 0.39 mg/dL
CA (Calcium), Mean [1, 2]: 9.77 mg/dL
CRE (Creatinine), Mean [1, 2]: 0.29 mg/dL
CT (Total cholesterol), Mean [1, 2]: 98.17 mg/dL
FA (Alkaline phosphatase), Mean [1, 2]: 108.75 U/L
GGT (Gamma-glutamyltransferase), Mean [1, 2]: 0.00 U/L
GLUCOSE, Mean [1, 2]: 118.56 mg/dL
P (Phosphorus), Mean [1, 2]: 4.69 mg/dL
PT (Total protein), Mean [1, 2]: 5.84 g/dL
TRI (Triglycerides), Mean [1, 2]: 62.00 mg/dL
UREIA, Mean [1, 2]: 54.93 mg/dL
ALB (Albumin), Mean [1, 3]: 2.91 g/dL
ALT (Alanine aminotransferase), Mean [1, 3]: 52.50 U/L
AST (Aspartate Aminotransferase), Mean [1, 3]: 119.73 U/L
BT (Total Bilirubin), Mean [1, 3]: 0.41 mg/dL
CA (Calcium), Mean [1, 3]: 8.34 mg/dL
CRE (Creatinine), Mean [1, 3]: 0.25 mg/dL
CT (Total cholesterol), Mean [1, 3]: 119.86 mg/dL
FA (Alkaline phosphatase), Mean [1, 3]: 77.20 U/L
GGT (Gamma-glutamyltransferase), Mean [1, 3]: 0.00 U/L
GLUCOSE, Mean [1, 3]: 138.04 mg/dL
P (Phosphorus), Mean [1, 3]: 5.47 mg/dL
PT (Total protein), Mean [1, 3]: 5.99 g/dL
TRI (Triglycerides), Mean [1, 3]: 92.90 mg/dL
UREIA, Mean [1, 3]: 44.12 mg/dL
ALB (Albumin), Mean [1, 4]: 3.29 g/dL
ALT (Alanine aminotransferase), Mean [1, 4]: 44.84 U/L
AST (Aspartate Aminotransferase), Mean [1, 4]: 127.67 U/L
BT (Total Bilirubin), Mean [1, 4]: 0.34 mg/dL
CA (Calcium), Mean [1, 4]: 10.26 mg/dL
CRE (Creatinine), Mean [1, 4]: 0.30 mg/dL
CT (Total cholesterol), Mean [1, 4]: 126.67 mg/dL
FA (Alkaline phosphatase), Mean [1, 4]: 80.40 U/L
GGT (Gamma-glutamyltransferase), Mean [1, 4]: 0.20 U/L
GLUCOSE, Mean [1, 4]: 135.84 mg/dL
P (Phosphorus), Mean [1, 4]: 5.44 mg/dL
PT (Total protein), Mean [1, 4]: 6.79 g/dL
TRI (Triglycerides), Mean [1, 4]: 108.33 mg/dL
UREIA, Mean [1, 4]: 73.50 mg/dL
HCT [1, 5]: 40.60%
HGB [1, 5]: 13.58 g/dL
MCH [1, 5]: 17.51 pg
MCHC [1, 5]: 31.74 g/dL
MCV [1, 5]: 52.32 fL
PLT [1, 5]: 1.07322e+06 µL⁻¹
RBC [1, 5]: 7.76e+06 µL⁻¹
W-LCR [1, 5]: 36.41%
W-MCR [1, 5]: 5.03%
W-SCR [1, 5]: 57.60%
WBC [1, 5]: 1700 µL⁻¹
HCT [1, 6]: 39.78%
HGB [1, 6]: 13.31 g/dL
MCH [1, 6]: 17.50 pg
MCHC [1, 6]: 33.47 g/dL
MCV [1, 6]: 52.32 fL
PLT [1, 6]: 918000 µL⁻¹
RBC [1, 6]: 7.61e+06 µL⁻¹
W-LCR [1, 6]: 21.77%
W-MCR [1, 6]: 2.77%
W-SCR [1, 6]: 74.94 * %
WBC [1, 6]: 3590 µL⁻¹
HCT [1, 7]: 40.70%
HGB [1, 7]: 13.27 g/dL
MCH [1, 7]: 17.46 pg
MCHC [1, 7]: 33.03 g/dL
MCV [1, 7]: 52.80 fL
PLT [1, 7]: 780330 µL⁻¹
RBC [1, 7]: 7.61e+06 µL⁻¹
W-LCR [1, 7]: 22.91%
W-MCR [1, 7]: 3.10%
W-SCR [1, 7]: 73.06%
WBC [1, 7]: 4.88* ×10^3/μL
ALT [1, 8]: 43.99 U/L
AST [1, 8]: 105.30 U/L
BT [1, 8]: 0.67 mg/dL
CA [1, 8]: 9.91 mg/dL
CRE [1, 8]: 0.37 mg/dL
CT [1, 8]: 137.00 mg/dL
FA [1, 8]: 103.67 U/L
GGT [1, 8]: 2.33 U/L
GLUCOSE [1, 8]: 127.41 mg/dL
HCT [1, 8]: 38.33%
HGB [1, 8]: 12.51 g/dL
MCH [1, 8]: 17.12 pg
MCHC [1, 8]: 32.69 g/dL
MCV [1, 8]: 52.46 fL
PLT [1, 8]: 971900 µL⁻¹
PT [1, 8]: 5.56 g/dL
RBC [1, 8]: 7.3e+06 µL⁻¹
TRI [1, 8]: 94.50 mg/dL
UREIA [1, 8]: 60.48 mg/dL
W-LCR [1, 8]: 40.81 * %
W-MCR [1, 8]: 5.41%
W-SCR [1, 8]: 51.88 * %
WBC [1, 8]: 1610 µL⁻¹
ALT [1, 9]: 69.54 U/L
AST [1, 9]: 134.48 U/L
BT [1, 9]: 0.25 mg/dL
CA [1, 9]: 9.76 mg/dL
CRE [1, 9]: 0.28 mg/dL
CT [1, 9]: 154.56 mg/dL
FA [1, 9]: 69.67 U/L
GGT [1, 9]: 0.00 U/L
GLUCOSE [1, 9]: 129.24 mg/dL
HCT [1, 9]: 38.59%
HGB [1, 9]: 12.64 g/dL
MCH [1, 9]: 17.34 pg
MCHC [1, 9]: 32.76 g/dL
MCV [1, 9]: 53.00 fL
PLT [1, 9]: 1.03444e+06 µL⁻¹
PT [1, 9]: 5.74 g/dL
RBC [1, 9]: 7.28e+06 µL⁻¹
TRI [1, 9]: 116.7 mg/dL
UREIA [1, 9]: 30.02 * mg/dL
W-LCR [1, 9]: 16.37 * %
W-MCR [1, 9]: 3.36 * %
W-SCR [1, 9]: 79.52 * %
WBC [1, 9]: 4700 µL⁻¹
ALT [1, 10]: 57.17 U/L
AST [1, 10]: 124.78 U/L
BT [1, 10]: 0.43 mg/dL
CA [1, 10]: 10.38 mg/dL
CRE [1, 10]: 0.31 mg/dL
CT [1, 10]: 183.56 mg/dL
FA [1, 10]: 85.88 U/L
GGT [1, 10]: 0.50 U/L
GLUCOSE [1, 10]: 105.23 mg/dL
HCT [1, 10]: 40.41%
HGB [1, 10]: 13.26 g/dL
MCH [1, 10]: 17.03 pg
MCHC [1, 10]: 32.80 g/dL
MCV [1, 10]: 51.91 fL
PLT [1, 10]: 1.05633e+06 µL⁻¹
PT [1, 10]: 5.22 g/dL
RBC [1, 10]: 7.79e+06 µL⁻¹
TRI [1, 10]: 84.90 mg/dL
UREIA [1, 10]: 74.16 mg/dL
W-LCR [1, 10]: 20.89 * %
W-MCR [1, 10]: 4.17%
W-SCR [1, 10]: 74.40* %
WBC [1, 10]: 4110 µL⁻¹
histopathology, kidneys ([1]; mice, both sexes, 250 mg/kg): areas of basophilic proximal tubules and tubular dilatation
ophthalmological health ([1]; mice, either sex, 250 mg/kg): No changes
biochemical and hematological parameters ([1]; mice, male and female, 28 days, main groups): slight changes
histopathology, kidneys ([1]; mice, 10 mg/kg and 80 mg/kg, recovery group): not observed
macroscopic evaluation at necropsy ([1]; mice, 28 days): did not reveal significant changes
urine parameters (volume, specific gravity, pH, protein) ([1]; mice, 28 days, main groups): No significant changes
